Like-named read-outs stand apart in the source and are kept apart here.
Target: T1, SIRT1 (Homo sapiens, UniProt Q96EB6)
T1 sequence (Q96EB6 1-747): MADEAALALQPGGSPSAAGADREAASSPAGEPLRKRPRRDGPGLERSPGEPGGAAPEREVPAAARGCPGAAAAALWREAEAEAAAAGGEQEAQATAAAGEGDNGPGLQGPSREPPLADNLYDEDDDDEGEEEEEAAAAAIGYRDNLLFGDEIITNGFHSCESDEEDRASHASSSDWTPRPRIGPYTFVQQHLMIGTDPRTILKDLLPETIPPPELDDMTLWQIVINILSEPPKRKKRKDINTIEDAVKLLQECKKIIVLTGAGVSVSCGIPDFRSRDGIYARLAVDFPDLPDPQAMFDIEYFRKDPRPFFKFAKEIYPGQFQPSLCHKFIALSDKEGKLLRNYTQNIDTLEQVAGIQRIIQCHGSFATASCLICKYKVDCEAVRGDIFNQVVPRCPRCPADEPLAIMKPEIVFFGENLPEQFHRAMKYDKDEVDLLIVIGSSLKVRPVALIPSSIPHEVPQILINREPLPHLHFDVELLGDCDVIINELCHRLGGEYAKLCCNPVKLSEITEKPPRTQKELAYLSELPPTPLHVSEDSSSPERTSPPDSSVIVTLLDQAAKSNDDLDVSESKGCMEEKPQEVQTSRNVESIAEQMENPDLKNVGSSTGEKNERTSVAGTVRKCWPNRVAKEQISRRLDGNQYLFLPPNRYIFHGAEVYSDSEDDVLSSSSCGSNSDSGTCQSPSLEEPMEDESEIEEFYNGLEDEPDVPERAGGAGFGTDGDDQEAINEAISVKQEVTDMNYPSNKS
Experiment: Trp mass spectrometry assay of SIRT1 activation
Type: biochemical
Settings: for TRP Activity (EC1.5): EC1.5 = concentration that results in 150% activation of SIRT1
Method in brief: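 N-terminal His-tagged human SIRT1 (10 nM, E. coli BL21(DE3)) with 0.5 μM Ac-RHKK(Ac)W-NH2 peptide and 120 μM βNAD+, 25 min at 25 °C in HEPES pH 7.5, formic acid stop. OAADPR or deacetylated peptide quantified by mass spectrometry; EC1.5 (50% activity increase over control) and Percent Maximum Activation reported.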

[1] = concentration giving 150% activation of SIRT1, Trp peptide substrate
[2] = Trp peptide assay, maximum activity relative to control (100%), read-out: TRP MAX RESP (percent maximum fold activation)
[3] = Trp mass spectrometry assay, EC1.5 = concentration of test compound that results in 150% activation of SIRT1
[4] = Trp mass spectrometry assay, percent maximum fold activation of SIRT1, read-out: Tryp % Fold Act
[5] = Trp peptide substrate, concentration giving 150% activation of SIRT1
[6] = Trp mass spectrometry assay, concentration of test compound giving 150% activation of SIRT1

Structure (SMILES): O=C(Nc1cccc(C2=CCOCC2)n1)N1c2nc(-c3cccc(C(F)(F)F)c3)ccc2N2CC[C@H]1C2 [Example 658]
- Tryp AVG EC1.5 (μM) [1]: A (A (EC1.5<1 μM))

Structure (SMILES): Cc1ccc(-c2ccc3c(n2)N(C(=O)Nc2cnccn2)[C@H]2CCN3C2)c(C)n1 [(9S)-5-(2,6-dimethylpyridin-3-yl)-N-(pyrazin-2-yl)-1,6,8-triazatricyclo[7.2.1.0 {2,7}]dodeca-2(7),3,5-triene-8-carboxamide]
- TRP Activity (EC1.5) (Trp peptide assay): B (B (EC1.5 1-25 μM))
- Emax [2]: > 150%

Structure (SMILES): Cc1cc(-c2ccc3c(n2)N(C(=O)Nc2ccc4nn(C)cc4c2)[C@H]2CCN3C2)ccn1 [Example 483]
- Tryp AVG EC1.5 (μM) [3]: A (A (EC1.5<1 μM))
- Emax [4]: > 150%

Structure (SMILES): O=C1OCc2ccc(NC(=O)N3c4nc(-c5cccc(C(F)(F)F)c5)ccc4N4CC[C@H]3C4)cc21 [Example 93]
- Tryp AVG EC1.5 (μM) [5]: A (A (EC1.5<1 μM))

Structure (SMILES): N#Cc1cncc(-c2ccc3c(n2)N(C(=O)Nc2cnccn2)[C@H]2CCN3C2)c1 [Example 459]
- Tryp AVG EC1.5 (μM) [3]: A (A (EC1.5<1 μM))

Structure (SMILES): O=C(Nc1cnccn1)N1c2nc(-c3ccnc(C(F)(F)F)c3)ccc2N2CCC[C@H]1C2 [(9S)-N-(pyrazin-2-yl)-5-[2-(trifluoromethyl)pyridin-4-yl]-1,6,8-triazatricyclo[7.3.1.0 {2,7}]trideca-2(7),3,5-triene-8-carboxamide]
- TRP Activity (EC1.5) (Trp peptide assay): A (A (EC1.5<1 μM))
- Emax [2]: > 150%

Structure (SMILES): O=C(Nc1cc(F)ccn1)N1c2nc(-c3cccc(C(F)(F)F)c3)ccc2N2CCC1CC2 [Example 492]
- Tryp AVG EC1.5 (μM) [3]: A (A (EC1.5<1 μM))
- Emax [4]: > 150%

Structure (SMILES): COc1cnc(NC(=O)N2c3nc(-c4ccnc(C)c4)ccc3N3CC[C@H]2C3)cn1 [Example 500]
- Tryp AVG EC1.5 (μM) [3]: A (A (EC1.5<1 μM))

Structure (SMILES): O=C(Nc1cnccn1)N1c2nc(-c3ccn[nH]3)ccc2N2CC[C@H]1C2 [(9S)-N-(pyrazin-2-yl)-5-(1H-pyrazol-5-yl)-1,6,8-triazatricyclo[7.2.1.0 {2,7}]dodeca-2(7),3,5-triene-8-carboxamide]
- TRP Activity (EC1.5) (Trp peptide assay): B (B (EC1.5 1-25 μM))
- Emax [2]: > 150%

Structure (SMILES): CC(C)(C)OC(=O)NCc1ccc(NC(=O)N2c3nc(-c4cccc(C(F)(F)F)c4)ccc3N3CC[C@H]2C3)cc1 [Example 793]
- Tryp AVG EC1.5 (μM) [1]: B (B (EC1.5 1-25 μM))

Structure (SMILES): O=C(Nc1cccc(-c2cnco2)c1)N1c2nc(-c3cccc(C(F)(F)F)c3)ccc2N2C[C@@H](O)[C@H]1C2 [Example 665]
- Tryp AVG EC1.5 (μM) [1]: A (A (EC1.5<1 μM))

Structure (SMILES): COc1cc(NC(=O)N2c3nc(-c4cncc(F)c4)ccc3N3CCC[C@H]2C3)ncn1 [Example 404]
- Tryp AVG EC1.5 (μM) [6]: A (A (EC1.5<1 μM))

Structure (SMILES): O=C(NCc1ccc(NC(=O)N2c3nc(-c4cccc(C(F)(F)F)c4)ccc3N3CC[C@H]2C3)cc1)OC[C@@H]1[C@@H]2CCC#CCC[C@@H]21 [Example 796]
- Tryp AVG EC1.5 (μM) [1]: B (B (EC1.5 1-25 μM))

Structure (SMILES): COc1cncc(-c2ccc3c(n2)N(C(=O)Nc2ccccn2)[C@H]2CCN3C2)c1 [Example 346]
- Tryp AVG EC1.5 (μM) [6]: B (B (EC1.5 1-25 μM))

Structure (SMILES): COc1cc(NC(=O)N2c3nc(-c4cccc(Cl)c4)ccc3N3CC[C@H]2C3)nc(OC)n1 [Example 103]
- Tryp AVG EC1.5 (μM) [5]: B (B (EC1.5 1-25 μM))

Structure (SMILES): O=C(Nc1ccncc1)N1c2nc(-c3cccc(C(F)(F)F)c3)ccc2N2CC[C@@H]1C2 [Example 824]
- Tryp AVG EC1.5 (μM) [1]: A (A (EC1.5<1 μM))

Structure (SMILES): Cc1cc(-c2ccc3c(n2)N(C(=O)Nc2nccc4[nH]cnc24)[C@H]2CCN3C2)ccn1 [(9S)-N-{1H-imidazo[4,5-c]pyridin-4-yl}-5-(2-methylpyridin-4-yl)-1,6,8-triazatricyclo[7.2.1.0 {2,7}]dodeca-2,4,6-triene-8-carboxamide]
- TRP Activity (EC1.5) (Trp peptide assay): B (B (EC1.5 1-25 μM))
- Emax [2]: > 150%

Structure (SMILES): O=C(Nc1cccnn1)N1c2nc(-c3cccc(C(F)(F)F)c3)ccc2N2C[C@@H](O)[C@H]1C2 [Example 631]
- Tryp AVG EC1.5 (μM) [1]: B (B (EC1.5 1-25 μM))

Structure (SMILES): Cc1cc(-c2ccc3c(n2)N(C(=O)Nc2ccc4[nH]cnc4n2)[C@H]2CCN3C2)ccn1 [(9S)-N-{1H-imidazo[4,5-b]pyridin-5-yl}-5-(2-methylpyridin-4-yl)-1,6,8-triazatricyclo[7.2.1.0 {2,7}]dodeca-2(7),3,5-triene-8-carboxamide]
- TRP Activity (EC1.5) (Trp peptide assay): B (B (EC1.5 1-25 μM))
- Emax [2]: > 150%

Structure (SMILES): O=C(Nc1ccnc(OC[C@@H](O)CO)n1)N1c2nc(-c3cccc(C(F)(F)F)c3)ccc2N2CC[C@H]1C2 [(9S)-N-{2-[(2S)-2,3-dihydroxypropoxy]pyrimidin-4-yl}-5-[3-(trifluoromethyl)phenyl]-1,6,8-triazatricyclo[7.2.1.0 {2,7}]dodeca-2(7),3,5-triene-8-carboxamide]
- TRP Activity (EC1.5) (Trp peptide assay): A (A (EC1.5<1 μM))
- Emax [2]: > 150%

Structure (SMILES): O=C(Nc1ccncn1)N1c2nc(-c3cccc(Cl)c3)ccc2N2C[C@@H](O)[C@H]1C2 [Example 684]
- Tryp AVG EC1.5 (μM) [1]: B (B (EC1.5 1-25 μM))

Structure (SMILES): O=C(Nc1cc(OC[C@@H](O)CO)ccn1)N1c2nc(-c3cccc(C(F)(F)F)c3)ccc2N2CC[C@H]1C2 [(9S)-N-{4-[(2S)-2,3-dihydroxypropoxy]pyridin-2-yl}-5-[3-(trifluoromethyl)phenyl]-1,6,8-triazatricyclo[7.2.1.0 {2,7}]dodeca-2(7),3,5-triene-8-carboxamide]
- TRP Activity (EC1.5) (Trp peptide assay): A (A (EC1.5<1 μM))
- Emax [2]: > 150%

Structure (SMILES): C#Cc1ccc(NC(=O)N2c3nc(-c4cccc(C5(C(F)(F)F)N=N5)c4)ccc3N3CC[C@H]2C3)nc1 [Example 803]
- Tryp AVG EC1.5 (μM) [1]: A (A (EC1.5<1 μM))

Structure (SMILES): N#Cc1ccccc1-c1ccc2c(n1)N(C(=O)Nc1cncc(F)c1)[C@H]1CCCN2C1 [Example 439]
- Tryp AVG EC1.5 (μM) [3]: B (B (EC1.5 1-25 μM))

Structure (SMILES): NCc1ncc(-c2cccc(NC(=O)N3c4nc(-c5cccc(C(F)(F)F)c5)ccc4N4CC[C@H]3C4)c2)o1 [Example 725]
- Tryp AVG EC1.5 (μM) [1]: A (A (EC1.5<1 μM))

Structure (SMILES): CS(=O)(=O)c1cncc(-c2ccc3c(n2)N(C(=O)Nc2cnccn2)[C@H]2CCCN3C2)c1 [Example 378]
- Tryp AVG EC1.5 (μM) [6]: A (A (EC1.5<1 μM))

Structure (SMILES): O=C(Nc1ccccn1)N1c2nc(-c3ccnc(N4CC[C@H](F)C4)c3)ccc2N2CC[C@H]1C2 [Example 422]
- Tryp AVG EC1.5 (μM) [3]: A (A (EC1.5<1 μM))
- Emax [4]: > 150%

Structure (SMILES): COc1cc(NC(=O)N2c3nc(-c4ccnc(N5CC[C@@H](F)C5)c4)ccc3N3CC[C@H]2C3)ncn1 [Example 424]
- Tryp AVG EC1.5 (μM) [3]: B (B (EC1.5 1-25 μM))

Structure (SMILES): O=C(Nc1cccnc1)N1c2nc(-c3ccc(C(F)(F)F)nc3)ccc2N2CC[C@H]1C2 [(9S)-N-(pyridin-3-yl)-5-[6-(trifluoromethyl)pyridin-3-yl]-1,6,8-triazatricyclo[7.2.1.0^{2,7}]dodeca-2(7),3,5-triene-8-carboxamide]
- TRP Activity (EC1.5) (Trp peptide assay): B (B (EC1.5 1-25 μM))
- Emax [2]: > 150%

Structure (SMILES): O=C(Nc1ccccn1)N1c2nc(-c3ccc4nonc4c3)ccc2N2CC[C@H]1C2 [Example 372]
- Tryp AVG EC1.5 (μM) [6]: B (B (EC1.5 1-25 μM))

Structure (SMILES): O=C(Nc1cnccn1)N1c2nc(N3CCOCC3)ccc2N2CC[C@H]1C2 [(9S)-5-(morpholin-4-yl)-N-(pyrazin-2-yl)-1,6,8-triazatricyclo[7.2.1.0 {2,7}]dodeca-2,4,6-triene-8-carboxamide]
- TRP Activity (EC1.5) (Trp peptide assay): B (B (EC1.5 1-25 μM))
- Emax [2]: > 150%

Structure (SMILES): CC(C)(C)OC(=O)NCCCc1ccc(NC(=O)N2c3nc(-c4cccc(C(F)(F)F)c4)ccc3N3CC[C@H]2C3)cc1-c1cnco1 [Example 750]
- Tryp AVG EC1.5 (μM) [1]: A (A (EC1.5<1 μM))

Structure (SMILES): Cn1ccc(-c2ccc3c(n2)N(C(=O)Nc2cnccn2)[C@H]2CCN3C2)n1 [(9S)-5-(1-methyl-1H-pyrazol-3-yl)-N-(pyrazin-2-yl)-1,6,8-triazatricyclo[7.2.1.0 {2,7}]dodeca-2(7),3,5-triene-8-carboxamide]
- TRP Activity (EC1.5) (Trp peptide assay): B (B (EC1.5 1-25 μM))
- Emax [2]: > 150%

— patent US9834558B2, “Substituted bridged urea analogs as sirtuin modulators” (GLAXOSMITHKLINE LLC, priority 2013, dated 2017)
